Data published in patent US10081609B2, “Compounds for inducing proliferation and differentiation of cells, and methods of use thereof” (The Broad Institute, Inc., priority 2013, dated 2018).

Experiments:
[1] = system: primary human hepatocytes; assay: Expansion of primary human hepatocytes from six additional cell sources (Ki67/albumin staining, FACS); assay type: cell-based
Experimental: On day seven, the number of hepatocytes was quantified by FACS analysis (FIG. 6B). Day one untreated controls was added to the bar graph for reference.

[2] = system: human primary hepatocytes; assay: Expansion of human primary hepatocytes on growth-arrested J2-3T3 feeder layer in 12-well plates (imaging, cell counting, FACS, biochemical assays); assay type: cell-based
Experimental: Culture media were collected and frozen at −20° C. until analysis. Albumin content was measured through sandwich ELISA assays (MP Biomedicals, Fitzgerald, Bethyl Laboratories) using horseradish peroxidase detection and 3,3′,5,5′-tetramethylbenzidine (TMB, Fitzgerald Industries) as a substrate. Urea concentration was determined colorimetrically using diacetylmonoxime with acid and heat (Stanbio Labs). To quantify CYP450 activity, at 48 hours after small molecule exposure, cultures were incubated with substrates (coumarin from Sigma for CYP2A6, luciferin-IPA from Promega for CYP3A4) for 4 hours at 37° C. Incubation medium was collected and metabolite concentration quantified via luminescence, or fluorescence after hydrolization of potential metabolite conjugates by β-glucuronidase/arylsulfatase (Roche, Ind.).
To characterize the effects of FPH1 and FPH2 outside of the screening platform, human primary hepatocytes were seeded at a density of ˜20,000 cells/cm^2, into standard 12-well tissue culture plates on top of a feeder layer of growth-arrested J2-3T3s. These cells were cultured for 7 days, during which time a single compound/FPH was supplemented into the media on days 1 and 5 at a concentration of 20 μM. Treated hepatocyte colonies increased in size over time, with more hepatocytes populating each colony (FIG. 2D, 2E).
To characterize the degree of proliferation and to obtain a doubling time, cells were counted and fluorescence-activated cell sorting (FACS) was performed (FIG. 2H). For cell counting, FPH-treated cells were trypsinized after seven days in culture. The number of cells was quantified using an automated cell counter. The number of hepatocytes was obtained by subtracting the number of fibroblasts from the total number of cells found in the corresponding co-culture. For FACS analysis, growth arrested J2-3T3s were labeled with CM-DiI prior to initiation of co-culture so that hepatocytes can be identified via negative selection. To enable cell counting during FACS, each sample was supplemented with fluorescent counting beads. […] Over 7 days, FPH1 induced hepatocyte doublings at a rate that is consistent with reported liver regeneration kinetics in vivo.
To assess the phenotype of the treated hepatocytes, imaging, biochemical analyses and gene expression profiling were performed. […] Albumin secretion and urea synthesis, a surrogate marker of nitrogen metabolism, were both stable throughout FPH treatment (FIG. 3A top and middle). Metabolic functions were assessed via examinations of cytochrome P450 (CYP450) activity and canalicular transport. […] Gene expression profiling confirmed that there are no significant differences between FPH-treated and untreated hepatocytes (FIG. 3C).

MAPKAP-KII = MAPKAP-KII (Homo sapiens, UniProt P49137); assay: Kinome analysis (panel of kinases); assay type: biochemical
Experimental: (§1) Selected compounds of the invention (FPH1 and FPH2; both at 1 μM concentration) were screened against a panel of kinases (FIG. 17).

FMS = FMS (Homo sapiens, UniProt P07333); assay: Kinome analysis (panel of kinases); assay type: biochemical
Experimental: as §1

EphB4 = EphB4 (Homo sapiens, UniProt P54760); assay: Kinome analysis (panel of kinases); assay type: biochemical
Experimental: as §1

PI3KCγ = assay: Kinome analysis (panel of kinases); assay type: biochemical; conditions: 1 μM
Experimental: as §1

PAK5 = PAK5 (Homo sapiens, UniProt Q9P286); assay: Kinome analysis (panel of kinases); assay type: biochemical
Experimental: as §1

MSSK1 = MSSK1 (Homo sapiens, UniProt Q9UPE1); assay: Kinome analysis (panel of kinases); assay type: biochemical
Experimental: as §1

CK1 γ2 = CK1 γ2 (Homo sapiens, UniProt P78368); assay: Kinome analysis (panel of kinases); assay type: biochemical
Experimental: as §1

eEF-2K = eEF-2K (Homo sapiens, UniProt O00418); assay: Kinome analysis (panel of kinases); assay type: biochemical
Experimental: as §1

SAPK4 = SAPK4 (Homo sapiens, UniProt O15264); assay: Kinome analysis (panel of kinases); assay type: biochemical
Experimental: as §1

GRK1 = GRK1 (Homo sapiens, UniProt Q15835); assay: Kinome analysis (panel of kinases); assay type: biochemical
Experimental: as §1

MAPKAPKV (PRAK) = MAPKAPKV (PRAK) (Homo sapiens, UniProt Q8IW41); assay: Kinome analysis (panel of kinases); assay type: biochemical; conditions: read-out: MAPKAPKV (PRAK) inhibition
Experimental: as §1

IGF-1R = IGF-1R (Homo sapiens, UniProt P08069); assay: Kinome analysis (panel of kinases); assay type: biochemical
Experimental: as §1

Pim1 = Pim1 (Homo sapiens, UniProt P11309); assay: Kinome analysis (panel of kinases); assay type: biochemical
Experimental: as §1

KDR = KDR (Homo sapiens, UniProt P35968); assay: Kinome analysis (panel of kinases); assay type: biochemical
Experimental: as §1

[3] = system: human primary hepatocytes; assay: High-throughput liver platform, primary screening: hepatocyte proliferation by automated high-content imaging (hepatocyte nuclei numbers); assay type: cell-based; conditions: primary screening
Experimental: In order to avoid species-specific differences and cell line mutations, the screen was conducted with human primary hepatocytes. Traditionally, chemical screening on such cells has been hindered by their availability in large quantities as well as their rapid loss of viability and phenotype in vitro. Recent advances in cryopreservation technologies allowed enough primary human cells to be stored for screening; these cells are maintained through co-cultivation with non-parenchymal cells. Co-cultures of primary human hepatocytes with murine embryonic J2-3T3 fibroblasts were recently shown to maintain normal hepatocyte phenotype for weeks. These in vitro platforms consisted of hepatocytes surrounded by a co-planar population of fibroblasts. While sufficient for stabilizing hepatocyte functions in vitro, such platforms may limit normal hepatocyte expansion due to contact inhibition. Thus, for this screen, a sparse population of hepatocytes was co-cultivated on top of a confluent feeder layer of J2-3T3 fibroblasts within 384-well plates (FIG. 1A top). This screening platform stabilized hepatocyte phenotypic functions in vitro (FIG. 1A bottom) and was compatible with two separate high-throughput readouts developed for this screen.
The primary readout detected hepatocyte proliferation via automated high-content imaging. This assay quantified hepatocyte nuclei numbers, using nuclear morphologies to separate the hepatocyte and fibroblast subpopulations that co-exist within the screening platform. When visualized with Hoechst stain, hepatocyte nuclei were smaller and more uniform in texture while fibroblast nuclei were larger and punctated (FIG. 1A bottom). Leveraging this distinction, automated image analyses was developed that utilized machine learning algorithms to classify nuclei types and tabulate hepatocyte nuclei numbers. […] Besides quantifying hepatocyte nuclei that have completed mitosis, the number of nuclei in the process of mitosis were also quantified. Two additional analysis pipelines were built to detect nuclear morphologies consistent with cells undergoing metaphase and anaphase.
FIG. 1B top summarizes the workflow of the screen. Primary screening was done on human primary hepatocytes, preconditioned for seven days by non-parenchymal cells in the screening platform. Upon stabilization in vitro, cultures were treated with the chemical library for 48 hours. All compounds were tested in duplicates, at a single concentration of 15 μM. This single concentration was selected via a pilot screen of ˜2,000 small molecules. All 12,480 small molecules were initially tested on a single donor of cryopreserved hepatocytes (donor a) in order to eliminate noise from donor-to-donor variability. Following compound treatment, media supernatants were collected for functional analyses via ELISA and cultures were fixed in 4% paraformaldehyde for proliferation analyses via imaging.
To identify proliferation hits, three image-based readouts—one each to quantify the number of (1) hepatocyte nuclei in interphase, (2) nuclei in metaphase and (3) nuclei in anaphase—were integrated. z Scores were converted into p values, which were then used to generate ranked lists of compounds based on the efficacy and consistency of effects across the different proliferation readouts. Efficacy was assessed by the product of p values (pprod=pinter×pmeta×pana); consistency was evaluated by the maximum of p values (pmax=max(pinter, pmeta, pana). Compounds were considered proliferation hits if pprod<1×10^−6 and pmax<0.25. Functional hits were selected by an ELISA […]. Compounds with ELISA z>3.0 were eliminated as toxic. 93 compounds met all hit selection criteria, qualifying as Functional Proliferation Hits (FPH); FIG. 1B bottom illustrates the types of compounds that constituted this set of hits.

Sequence of IGF-1R (P08069 31-1367, species assumed): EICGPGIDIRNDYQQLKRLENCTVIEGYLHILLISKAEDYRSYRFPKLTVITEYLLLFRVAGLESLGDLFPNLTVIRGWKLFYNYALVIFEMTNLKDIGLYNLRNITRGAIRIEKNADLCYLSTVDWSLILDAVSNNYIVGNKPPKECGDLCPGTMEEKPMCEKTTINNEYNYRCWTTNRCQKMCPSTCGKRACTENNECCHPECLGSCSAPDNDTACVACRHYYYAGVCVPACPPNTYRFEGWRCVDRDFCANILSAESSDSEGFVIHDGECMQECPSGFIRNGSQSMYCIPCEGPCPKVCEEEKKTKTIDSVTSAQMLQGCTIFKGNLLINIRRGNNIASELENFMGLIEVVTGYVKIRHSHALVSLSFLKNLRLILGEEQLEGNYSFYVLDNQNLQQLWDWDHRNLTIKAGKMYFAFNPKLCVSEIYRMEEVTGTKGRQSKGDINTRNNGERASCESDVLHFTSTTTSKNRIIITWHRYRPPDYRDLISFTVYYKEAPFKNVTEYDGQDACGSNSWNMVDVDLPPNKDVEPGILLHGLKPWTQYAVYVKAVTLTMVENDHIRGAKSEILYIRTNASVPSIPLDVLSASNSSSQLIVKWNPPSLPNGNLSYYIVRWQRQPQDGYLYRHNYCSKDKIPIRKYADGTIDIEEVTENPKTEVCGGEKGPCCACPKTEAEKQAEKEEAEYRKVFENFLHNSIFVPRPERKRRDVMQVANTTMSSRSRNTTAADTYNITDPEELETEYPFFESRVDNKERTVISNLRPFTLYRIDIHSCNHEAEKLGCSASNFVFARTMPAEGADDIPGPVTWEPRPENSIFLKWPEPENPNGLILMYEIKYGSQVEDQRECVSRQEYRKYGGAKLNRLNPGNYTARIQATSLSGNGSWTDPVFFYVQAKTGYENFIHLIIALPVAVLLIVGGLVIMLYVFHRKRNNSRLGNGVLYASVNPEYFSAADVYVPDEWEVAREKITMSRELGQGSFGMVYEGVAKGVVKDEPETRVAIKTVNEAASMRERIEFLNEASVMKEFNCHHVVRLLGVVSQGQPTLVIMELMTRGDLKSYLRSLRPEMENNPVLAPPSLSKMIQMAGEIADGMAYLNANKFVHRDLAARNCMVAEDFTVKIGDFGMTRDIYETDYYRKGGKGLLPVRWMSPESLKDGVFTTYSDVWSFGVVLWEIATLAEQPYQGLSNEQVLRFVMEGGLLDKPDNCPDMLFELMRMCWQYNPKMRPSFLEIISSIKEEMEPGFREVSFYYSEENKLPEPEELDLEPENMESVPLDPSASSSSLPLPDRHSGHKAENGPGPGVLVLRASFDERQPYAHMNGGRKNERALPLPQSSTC
Sequence of FMS (P07333 20-972, species assumed): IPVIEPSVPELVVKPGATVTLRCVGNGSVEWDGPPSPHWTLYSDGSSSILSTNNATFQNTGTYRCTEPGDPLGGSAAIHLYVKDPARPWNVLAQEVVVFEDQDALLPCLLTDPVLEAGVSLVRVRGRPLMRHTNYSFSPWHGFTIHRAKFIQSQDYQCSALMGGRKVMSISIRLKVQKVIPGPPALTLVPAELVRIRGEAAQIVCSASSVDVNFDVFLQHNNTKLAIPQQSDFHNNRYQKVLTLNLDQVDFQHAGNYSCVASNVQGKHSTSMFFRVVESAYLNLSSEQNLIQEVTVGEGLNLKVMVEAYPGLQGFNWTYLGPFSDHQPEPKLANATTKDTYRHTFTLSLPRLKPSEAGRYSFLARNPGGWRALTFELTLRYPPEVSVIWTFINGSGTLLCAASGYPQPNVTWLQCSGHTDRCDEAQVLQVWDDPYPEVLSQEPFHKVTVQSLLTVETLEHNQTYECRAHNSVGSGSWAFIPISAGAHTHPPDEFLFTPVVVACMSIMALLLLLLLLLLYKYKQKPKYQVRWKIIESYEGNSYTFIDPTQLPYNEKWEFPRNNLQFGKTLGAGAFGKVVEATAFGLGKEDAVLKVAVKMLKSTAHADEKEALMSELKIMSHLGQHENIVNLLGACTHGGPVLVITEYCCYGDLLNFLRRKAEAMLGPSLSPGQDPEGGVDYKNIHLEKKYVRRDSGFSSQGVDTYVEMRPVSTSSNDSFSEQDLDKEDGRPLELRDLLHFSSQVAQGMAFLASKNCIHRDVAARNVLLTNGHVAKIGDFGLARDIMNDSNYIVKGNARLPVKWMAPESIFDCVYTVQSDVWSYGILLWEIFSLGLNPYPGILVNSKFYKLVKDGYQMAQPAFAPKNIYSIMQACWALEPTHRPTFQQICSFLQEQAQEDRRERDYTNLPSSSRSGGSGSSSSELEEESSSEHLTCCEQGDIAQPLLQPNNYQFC
Sequence of MAPKAP-KII (P49137 whole entry): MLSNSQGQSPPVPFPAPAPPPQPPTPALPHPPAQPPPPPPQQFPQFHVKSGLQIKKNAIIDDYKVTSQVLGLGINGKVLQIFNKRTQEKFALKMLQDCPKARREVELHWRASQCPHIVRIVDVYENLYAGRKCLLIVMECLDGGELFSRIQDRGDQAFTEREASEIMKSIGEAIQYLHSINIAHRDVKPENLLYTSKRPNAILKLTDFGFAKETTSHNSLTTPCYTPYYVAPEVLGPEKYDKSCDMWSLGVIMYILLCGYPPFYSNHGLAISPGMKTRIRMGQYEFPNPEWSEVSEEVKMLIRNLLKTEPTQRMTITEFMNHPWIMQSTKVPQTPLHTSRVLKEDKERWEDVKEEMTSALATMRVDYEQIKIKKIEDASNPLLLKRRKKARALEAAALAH
Sequence of GRK1 (Q15835 whole entry, species assumed): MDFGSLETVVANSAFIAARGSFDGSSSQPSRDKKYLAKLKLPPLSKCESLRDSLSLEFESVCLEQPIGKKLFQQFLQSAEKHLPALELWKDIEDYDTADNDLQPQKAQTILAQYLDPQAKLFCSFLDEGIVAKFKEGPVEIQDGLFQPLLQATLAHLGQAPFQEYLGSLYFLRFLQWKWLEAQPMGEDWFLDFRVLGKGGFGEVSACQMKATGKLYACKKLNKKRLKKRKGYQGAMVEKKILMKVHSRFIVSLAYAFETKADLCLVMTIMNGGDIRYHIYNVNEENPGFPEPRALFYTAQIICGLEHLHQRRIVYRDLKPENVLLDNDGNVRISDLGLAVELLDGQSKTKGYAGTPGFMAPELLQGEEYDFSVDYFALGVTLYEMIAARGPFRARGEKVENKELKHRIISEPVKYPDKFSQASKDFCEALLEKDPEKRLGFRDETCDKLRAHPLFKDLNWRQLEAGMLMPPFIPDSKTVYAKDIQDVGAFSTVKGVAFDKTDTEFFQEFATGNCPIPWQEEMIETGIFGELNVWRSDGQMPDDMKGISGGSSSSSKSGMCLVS
Sequence of EphB4 (P54760 16-987, species assumed): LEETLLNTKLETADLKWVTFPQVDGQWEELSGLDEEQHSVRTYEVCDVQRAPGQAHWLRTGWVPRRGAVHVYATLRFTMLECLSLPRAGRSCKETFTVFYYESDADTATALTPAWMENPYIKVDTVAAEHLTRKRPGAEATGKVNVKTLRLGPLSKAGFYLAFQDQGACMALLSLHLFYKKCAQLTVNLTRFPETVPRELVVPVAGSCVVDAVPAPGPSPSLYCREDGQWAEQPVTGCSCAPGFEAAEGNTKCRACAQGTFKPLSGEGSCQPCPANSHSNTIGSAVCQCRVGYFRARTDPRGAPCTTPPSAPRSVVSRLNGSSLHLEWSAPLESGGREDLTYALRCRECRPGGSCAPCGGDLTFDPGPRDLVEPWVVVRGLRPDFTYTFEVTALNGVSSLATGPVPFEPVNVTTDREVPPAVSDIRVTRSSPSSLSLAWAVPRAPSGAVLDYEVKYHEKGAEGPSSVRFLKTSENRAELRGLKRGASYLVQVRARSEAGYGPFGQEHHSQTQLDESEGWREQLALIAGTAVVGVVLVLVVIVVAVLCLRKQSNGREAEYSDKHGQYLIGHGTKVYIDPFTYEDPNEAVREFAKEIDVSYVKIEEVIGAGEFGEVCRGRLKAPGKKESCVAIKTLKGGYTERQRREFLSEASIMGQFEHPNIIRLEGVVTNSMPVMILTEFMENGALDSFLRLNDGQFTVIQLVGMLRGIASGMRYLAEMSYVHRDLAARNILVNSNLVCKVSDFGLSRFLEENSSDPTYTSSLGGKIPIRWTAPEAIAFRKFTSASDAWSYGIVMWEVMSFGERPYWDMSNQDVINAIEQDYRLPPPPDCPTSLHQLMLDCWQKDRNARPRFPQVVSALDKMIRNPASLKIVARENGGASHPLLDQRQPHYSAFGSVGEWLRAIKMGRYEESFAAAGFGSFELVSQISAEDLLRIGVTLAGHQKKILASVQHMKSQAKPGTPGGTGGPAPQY
Sequence of PAK5 (Q9P286 whole entry): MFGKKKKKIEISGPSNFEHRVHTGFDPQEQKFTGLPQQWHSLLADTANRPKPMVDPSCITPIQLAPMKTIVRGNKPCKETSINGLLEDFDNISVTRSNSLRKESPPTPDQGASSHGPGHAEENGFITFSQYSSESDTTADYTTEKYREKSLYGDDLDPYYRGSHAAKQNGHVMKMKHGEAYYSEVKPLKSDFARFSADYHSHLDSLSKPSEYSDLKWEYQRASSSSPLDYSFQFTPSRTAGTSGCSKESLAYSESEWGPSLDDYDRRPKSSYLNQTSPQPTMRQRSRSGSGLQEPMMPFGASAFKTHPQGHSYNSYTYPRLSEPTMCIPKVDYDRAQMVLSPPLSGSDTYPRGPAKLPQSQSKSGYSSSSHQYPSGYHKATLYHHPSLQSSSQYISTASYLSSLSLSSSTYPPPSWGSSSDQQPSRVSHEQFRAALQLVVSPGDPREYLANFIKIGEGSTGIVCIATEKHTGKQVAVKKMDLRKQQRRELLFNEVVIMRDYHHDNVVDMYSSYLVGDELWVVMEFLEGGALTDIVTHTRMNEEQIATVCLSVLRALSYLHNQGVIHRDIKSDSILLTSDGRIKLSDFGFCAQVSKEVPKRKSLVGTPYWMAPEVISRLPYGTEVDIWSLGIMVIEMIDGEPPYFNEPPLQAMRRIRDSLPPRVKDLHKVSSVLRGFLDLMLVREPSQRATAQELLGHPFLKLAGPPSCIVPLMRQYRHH

number of hepatocytes by FACS ([1]; day seven, all donors): increase
Ki67 staining co-localized with albumin labeled hepatocytes ([1]; six additional cell sources, six days in culture): increased
inhibition at 1 µM (MAPKAP-KII): 6.7 to 18.4%
inhibition at 1 µM (FMS): 23%
remaining activity at 1 µM (FMS): 77%
inhibition at 1 µM (EphB4): 6.7 to 18.4%
inhibition at 1 µM (PAK5): 6.7 to 18.4%
inhibition at 1 µM (MSSK1): 6.7 to 18.4%
inhibition at 1 µM (CK1 γ2): 6.7 to 18.4%
inhibition at 1 µM (eEF-2K): 6.7 to 18.4%
inhibition at 1 µM (SAPK4): 6.7 to 18.4%
inhibition at 1 µM (GRK1): 6.7 to 18.4%
inhibition at 1 µM (MAPKAPKV (PRAK)): 6.7 to 18.4%
inhibition at 1 µM (IGF-1R): 21%
remaining activity at 1 µM (IGF-1R): 79%
inhibition at 1 µM (Pim1): 6.7 to 18.4%
inhibition at 1 µM (KDR): 6.7 to 18.4%
Compound: CCn1cc(NC(=S)Nc2cc(Cl)ccc2OC)c(C(N)=O)n1 [FPH1, 4-(3-(5-chloro-2-methoxyphenyl)thioureido)-1-ethyl-1H-pyrazole-3-carboxamide]
increase in the area of albumin-positive colonies ([2]; 20 μM on days 1 and 5, 7 days culture): up to 6.6 fold
degree of proliferation (cell counting, FACS) ([2]; 7 days): strongest proliferation inducer
PI3KCγ inhibition (PI3KCγ): 6.7-18.4%
number of nuclei undergoing mitosis [3]: elevated
increase in hepatocyte nuclei numbers during primary screening ([3]; 15 μM, 48 hours): 1.5 ×
